These compounds were tested against T1, human renin (Homo sapiens, UniProt P00797) (assay: Determination of Renin IC50 by tGFP FRET Assay). Details: Human recombinant renin, tandem GFP substrate 650 nM, renin and compound incubated 60 minutes before substrate, pH 7.4.
T1 sequence (P00797 67-406): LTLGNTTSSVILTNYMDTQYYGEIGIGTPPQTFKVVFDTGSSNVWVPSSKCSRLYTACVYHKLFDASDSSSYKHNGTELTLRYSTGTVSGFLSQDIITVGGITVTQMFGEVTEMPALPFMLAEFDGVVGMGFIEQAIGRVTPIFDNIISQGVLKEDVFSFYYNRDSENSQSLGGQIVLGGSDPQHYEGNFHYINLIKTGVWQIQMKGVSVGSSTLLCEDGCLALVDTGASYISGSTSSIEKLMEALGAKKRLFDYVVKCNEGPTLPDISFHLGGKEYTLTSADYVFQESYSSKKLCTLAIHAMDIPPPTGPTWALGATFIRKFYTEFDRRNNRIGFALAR
Assay type: biochemical
Description: Determination of Renin IC50 by tGFP FRET Assay
The tGFP FRET (Green Fluorescent Protein Fluorescence Resonance Energy Transfer) assay utilizes a tandem GFP substrate (60 kDa) containing nine amino acid recognition sequences for human renin flanked by two GFP proteins. The assay is used to determine the ability of a compound to act as an inhibitor of renin enzymatic activity by determination of that concentration of test compound that inhibits by 50% (IC50) the ability of renin to cleave the tandem GFP substrate. The IC50 values are determined over an 11-point curve at concentrations of 100 μM to […]. Each compound concentration used to construct the curve was dependent on renin inhibitor potency. For example, subnanomolar IC50 values were determined over an 11-point curve at concentrations of 10 μM to […]. All other IC50 values were determined over an 11-point curve at concentrations of 100 μM to 0.0065 μM. The concentrations were achieved by diluting a 9.1 nM stock of Human recombinant renin in the appropriate amount of buffer containing 50 mM HEPES, 1 mM EDTA, 1% PEG (8000 MW), 1 mM DTT, 0.1% BSA, pH 7.4 to achieve the final concentration of 50.4 μIU. The tGFP substrate stock solution of 43 μM was diluted with the appropriate amount of the above buffer to obtain the final concentration of 650 nM. In addition, 1 μl of the compound is diluted in DSMO to represent an […] log scale (5% final). The renin and compound are added to a 384 capacity plate by an automated robot (BIOMEK). The plate is incubated for 60 minutes; upon completion the tGFP substrate is added.
The IC50 is determined by monitoring the increase in […] at 432/432 nm excitation, 530/475 nm emission with a cutoff at 515/455 nm, in a fluorometric plate reader.

SMILES | IC50 [nM]
O=C1CCC(=O)N1CCOc1cccc(CN[C@H]2CNCC[C@H]2c2ccc(OCCCOCc3ccccc3F)cc2)c1 (racemic) [1-(2-{3-[(4-{4-[3-(2-Fluoro-benzyloxy)-propoxy]-phenyl}-piperidin-3-ylamino)-methyl]-phenoxy}-ethyl)-pyrrolidine-2,5-dione] | 1400
O=C1CCCN1CCOc1cccc(CN[C@H]2CNCC[C@H]2c2ccc(OCCCOCc3ccccc3F)cc2)c1 (racemic) [1-(2-{3-[(4-{4-[3-(2-Fluoro-benzyloxy)-propoxy]-phenyl}-piperidin-3-ylamino)-methyl]-phenoxy}-ethyl)-pyrrolidine-2-one] | 932
COC(=O)c1cccc(CN[C@@H]2CNCC[C@@H]2c2ccc(OCCCOCc3ccccc3F)cc2)n1 (racemic) [6-[(4-{4-[3-(2-Fluoro-benzyloxy)-propoxy]-phenyl}-piperidin-3-ylamino)-methyl]-pyridine-2-carboxylic acid methyl ester] | 6980
COc1ccccc1COCCCOc1ccc([C@H]2CCNC[C@H]2NCc2ccc3[nH]ccc3c2)cc1 (racemic) [(1H-indol-5-ylmethyl)-(4-{4-[3-(2-methoxy-benzyloxy)-propoxy]-phenyl}-piperidin-3-yl)-amine] | > 1000
Fc1ccccc1COCCCOc1ccc([C@@H]2CCNC[C@@H]2NCc2ccc(F)c(C(F)(F)F)c2)cc1 (racemic) [(4-{4-[3-(2-fluoro-benzyloxy)-propoxy]-phenyl}-piperidin-3-yl)-(4-fluoro-3-trifluoromethyl-benzyl)-amine] | 454
COc1ccccc1COCCCOc1ccc([C@H]2CCNC[C@H]2NCc2ccc3c(c2)NCCC3)cc1 (racemic) [(4-{4-[3-(2-methoxy-benzyloxy)-propoxy]-phenyl}-piperidin-3-yl)-(1,2,3,4-tetrahydro-quinolin-7-ylmethyl)-amine] | 226
COc1ccc2cc(CN[C@@H]3CNCC[C@@H]3c3ccc(OCCCOCc4ccccc4OC)cc3)ccc2c1 (racemic) [(4-{4-[3-(2-methoxy-benzyloxy)-propoxy]-phenyl}-piperidin-3-yl)-(6-methoxy-naphthalen-2-ylmethyl)-amine] | 74.3
O=S(=O)(N[C@@H]1CNCC[C@@H]1c1ccc(OCCCOCc2ccccc2F)cc1)c1ccc2ccccc2c1 (racemic) [Naphthalene-2-sulfonic acid (4-{4-[3-(2-fluoro-benzyloxy)-propoxy]-phenyl}-piperidin-3-yl)-amide] | 693
COc1ccccc1COCCCOc1ccc([C@H]2CCNC[C@H]2NCc2ccc3c(c2)N(CCN(C)C)CCC3)cc1 (racemic) [[1-(2-dimethylamino-ethyl)-1,2,3,4-tetrahydro-quinolin-7-ylmethyl]-(4-{4-[3-(2-methoxybenzyloxy)-propoxy]-phenyl}-piperidin-3-yl)-amine] | > 1000
COC(=O)COc1cccc(CN[C@H]2CNCC[C@H]2c2ccc(OCCCOCc3ccccc3F)cc2)c1 (racemic) [{3-[(4-{4-[3-(2-Fluoro-benzyloxy)-propoxy]-phenyl}-piperidin-3-ylamino)-methyl]-phenoxy}-acetic acid methyl ester] | 924
COC(=O)c1ccc2cc(CN[C@@H]3CNCC[C@@H]3c3ccc(OCCCOCc4ccccc4F)cc3)ccc2c1 [6-[(4-{4-[3-(2-Fluoro-benyloxy)-propoxy]-phenyl}-piperidin-3-ylamino)-methyl]-naphthalene-2-carboxylic acid methyl ester] | 877
O=C(O)c1ccc2cc(CN[C@@H]3CNCC[C@@H]3c3ccc(OCCCOCc4ccccc4F)cc3)ccc2c1 [6-[(4-{4-[3-(2-Fluoro-benyloxy)-propoxy]-phenyl}-piperidin-3-ylamino)-methyl]-naphthalene-2-carboxylic acid] | > 1000
COC(=O)c1ccc2cc(CN[C@@H]3CNCC[C@@H]3c3ccc(OCCCOCc4ccccc4OC)cc3)ccc2c1 [6-[(4-{4-[3-(2-Methoxy-benyloxy)-propoxy]-phenyl}-piperidin-3-ylamino)-methyl]-naphthalene-2-carboxylic acid methyl ester] | 329

Now from value to compound:

IC50 [nM] | SMILES
> 1000 | COc1ccccc1COCCCOc1ccc([C@H]2CCNC[C@H]2NCc2ccc3cc(O)ccc3c2)cc1 (racemic) [6-[(4-{4-[3-(2-methoxy-benzyloxy)-propoxy]-phenyl}-piperidin-3-ylamino)-methyl]-naphthalen-2-ol]
573 | COc1ccccc1COCCCOc1ccc([C@H]2CCNC[C@H]2N(C)Cc2ccc3ccccc3c2)cc1 (racemic) [(4-{4-[3-(2-methoxy-benzyloxy)-propoxy]-phenyl}-piperidin-3-yl)-methyl-naphthalen-2-ylmethyl-amine]
87 | COc1ccccc1COCCCOc1ccc([C@H]2CCNC[C@H]2NCc2ccc3ccccc3c2)cc1 (racemic) [(4-{4-[3-(2-methoxy-benzyloxy)-propoxy]-phenyl}-piperidin-3-yl)-naphthalen-2-ylmethyl-amine]
175 | COc1ccccc1COCCCOc1ccc([C@H]2CCNC[C@H]2NCc2ccc3cccnc3c2)cc1 (racemic) [(4-{4-[3-(2-methoxy-benzyloxy)-propoxy]-phenyl}-piperidin-3-yl)-quinolin-7-ylmethyl-amine]
393 | COc1ccccc1COCCCOc1ccc([C@H]2CCNC[C@H]2NCc2ccc3occc3c2)cc1 (racemic) [benzofuran-5-ylmethyl-(4-{4-[3-(2-methoxy-benzyloxy)-propoxy]-phenyl}-piperidin-3-yl)-amine]
> 1000 | COc1ccccc1COCCCOc1ccc([C@H]2CCNC[C@H]2NC(=O)c2cccc3ccccc23)cc1 (racemic) [naphthalene-1-carboxylic acid (4-{4-[3-(2-methoxy-benzyloxy)-propoxy]-phenyl}-piperidin-3-yl)-amide]
282 | COC(=O)c1cccc2cc(CN[C@@H]3CNCC[C@@H]3c3ccc(OCCCOCc4ccccc4OC)cc3)ccc12 [6-[(4-[3-(2-methoxy-benzyloxy)-propoxyl]-phenyl}-piperidin-3-ylamino)-methyl]-naphthalene-1-carboxylic acid methyl ester]
2600 | COc1ccccc1COCCCOc1ccc([C@H]2CCNC[C@H]2NCc2ccc3c(C(=O)O)cccc3c2)cc1 [6-[(4-[4-(2-methoxy-benzyloxy)-propoxyl]-phenyl}-piperidin-3-ylamino)-methyl]-naphthalene-1-carboxylic acid]

From US20040204455A1, “Piperidine derivative rennin inhibitors” (priority 2003, published 2004)
